Where a name gives a salt, the structure may show the parent alone.
Key:
Format in all cases: functional
KM-20L2 = assay: Growth inhibition of human KM20L2 cells incubated for 48 hrs by sulforhodamine B assay; conditions: KM-20L2, 48 h
DU-145 = assay: Growth inhibition of human DU145 cells incubated for 48 hrs by sulforhodamine B assay; conditions: DU-145, 48 h
BXPC-3 = assay: Growth inhibition of human BxPC3 cells incubated for 48 hrs by sulforhodamine B assay; conditions: BXPC-3, 48 h
MCF7 = assay: Growth inhibition of human MCF7 cells incubated for 48 hrs by sulforhodamine B assay; conditions: MCF7, 48 h
NCI-H460 = assay: Growth inhibition of human NCI-H460 cells incubated for 48 hrs by sulforhodamine B assay; conditions: NCI-H460, 48 h
SF-268 = assay: Growth inhibition of human SF268 cells incubated for 48 hrs by sulforhodamine B assay; conditions: SF-268, 48 h
[1] = system: Panel NCI-60 (60 carcinoma cell lines); assay: Growth inhibition of human NCI60 cells

## CC[C@H]1CN2CCc3cc(OC)c(OC)cc3[C@@H]2C[C@@H]1C[C@H]1NCCc2cc(OC)c(OC)cc21 [EMETINE HYDROCHLORIDE]
KM-20L2
  GI50: 47 nM
DU-145
  GI50: 36.1 nM
BXPC-3
  GI50: 56 nM
MCF7
  GI50: 54.2 nM

## CC[C@H]1CN2CCc3cc(OC)c(OC)cc3[C@@H]2C[C@@H]1C[C@@H]1c2cc(OC)c(OC)cc2CCN1C(=O)[C@H](C)[C@@H](OC)[C@@H]1CCCN1C(=O)C[C@@H](OC)[C@H]([C@@H](C)CC)N(C)C(=O)[C@@H](NC(=O)[C@H](C(C)C)N(C)C)C(C)C
KM-20L2
  GI50: 35.8 nM
NCI-H460
  GI50: 198 nM
SF-268
  GI50: 30.2 nM
DU-145
  GI50: 12.3 nM
BXPC-3
  GI50: 386 nM
MCF7
  GI50: 35.8 nM

## CC[C@H]1CN2CCc3cc(OC)c(OC)cc3[C@@H]2C[C@@H]1C[C@@H]1c2cc(OC)c(OC)cc2CCN1C(=O)CCNC(=O)[C@H](C)[C@@H](OC)[C@@H]1CCCN1C(=O)C[C@@H](OC)[C@H]([C@@H](C)CC)N(C)C(=O)[C@@H](NC(=O)[C@H](C(C)C)N(C)C)C(C)C
KM-20L2
  GI50: 194 nM
NCI-H460
  GI50: 2830 nM
SF-268
  GI50: 186 nM
DU-145
  GI50: 97.2 nM
BXPC-3
  GI50: 3800 nM
MCF7
  GI50: 159 nM

## CC[C@H]1CN2CCc3cc(OC)c(OC)cc3[C@@H]2C[C@@H]1C[C@@H]1c2cc(OC)c(OC)cc2CCN1C(=O)CCNC(=O)[C@H](C)[C@@H](OC)[C@@H]1CCCN1C(=O)OC(C)(C)C
KM-20L2
  GI50: > 10 µg/mL
NCI-H460
  GI50: > 10 µg/mL
SF-268
  GI50: > 10 µg/mL
DU-145
  GI50: 10 µg/mL
BXPC-3
  GI50: > 10 µg/mL
MCF7
  GI50: > 10 µg/mL

## CC[C@H]1CN2CCc3cc(OC)c(OC)cc3[C@@H]2C[C@@H]1C[C@@H]1c2cc(OC)c(OC)cc2CCN1C(=O)CCN.O=C(O)C(F)(F)F.O=C(O)C(F)(F)F
KM-20L2
  GI50: > 10 µg/mL
NCI-H460
  GI50: > 10 µg/mL
SF-268
  GI50: > 10 µg/mL
DU-145
  GI50: 10.1 µg/mL
BXPC-3
  GI50: 10.3 µg/mL
MCF7
  GI50: > 10 µg/mL

## CC[C@H]1CN2CCc3cc(OC)c(OC)cc3[C@@H]2C[C@@H]1C[C@H]1NCCc2cc(OC)c(OC)cc21 [EMETINE]
[1]
  GI50: 27 nM

## CC[C@H]1CN2CCc3cc(OC)c(OC)cc3[C@@H]2C[C@@H]1C[C@@H]1c2cc(OC)c(OC)cc2CCN1C(=O)[C@H](C)[C@@H](OC)[C@@H]1CCCN1
KM-20L2
  GI50: 3420 nM
NCI-H460
  GI50: 5700 nM
SF-268
  GI50: 3650 nM
DU-145
  GI50: 3420 nM
BXPC-3
  GI50: 2390 nM
MCF7
  GI50: 1600 nM

## CC[C@H]1CN2CCc3cc(OC)c(OC)cc3[C@@H]2C[C@@H]1C[C@@H]1c2cc(OC)c(OC)cc2CCN1CCNC(=O)[C@H](C)[C@@H](OC)[C@@H]1CCCN1C(=O)C[C@@H](OC)[C@H]([C@@H](C)CC)N(C)C(=O)[C@@H](NC(=O)[C@H](C(C)C)N(C)C)C(C)C
KM-20L2
  GI50: 362 nM
NCI-H460
  GI50: 4530 nM
SF-268
  GI50: 272 nM
DU-145
  GI50: 181 nM
BXPC-3
  GI50: 1900 nM
MCF7
  GI50: 118 nM

## CC[C@H]1CN2CCc3cc(OC)c(OC)cc3[C@@H]2C[C@@H]1C[C@@H]1c2cc(OC)c(OC)cc2CCN1C(=O)CCNC(=O)OC(C)(C)C
KM-20L2
  GI50: > 10 µg/mL
NCI-H460
  GI50: > 10 µg/mL
SF-268
  GI50: > 10 µg/mL
DU-145
  GI50: > 10 µg/mL
BXPC-3
  GI50: > 10 µg/mL
MCF7
  GI50: 10 µg/mL

Reference: ChEMBL document CHEMBL4616664, “Antineoplastic Agents. 607. Emetine Auristatins” (2020)
